{"source": "patent US20220064092A1", "about": "“METHYLATION PROCESS” (priority 2019, published 2022)", "origin": "cited, not measured here", "conditions": "qualitative statement", "data": [{"smiles": "Oc1ccc(/C=C/c2cc(O)cc(O)c2)cc1", "note": "[resveratrol, 3,5,4′-trihydroxy-trans-stilbene]", "values": [{"measurement": "half-life", "result": "very limited half-life"}]}]}
